{"source": "the supplement of paper PMC10307832", "assay_in_all_cases": "relative viability (nuclei count vs DMSO), 5 days (fraction); higher = more cells survive", "key": {"[1]": {"test_system": "UMC-11", "method_in_brief": "(§1)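 Lung cancer cell lines were seeded in 1536-well plates and dosed by pin tool the next day, with either a single drug or a fixed anchor-drug dose combined with five library-drug doses (not always all listed) spaced in √10 steps. Five days later, one step fixed the cells and stained their nuclei (final 0.05% Triton X-100, 1% formaldehyde, 1 ug/ml Hoechst), and nuclei were counted on 4× images. Relative viability is the nuclei count in treated wells divided by the count in vehicle wells, and each value is the median of duplicate plates.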"}, "[2]": {"test_system": "NCI-H1650", "method_in_brief": "as §1"}, "[3]": {"test_system": "NCI-H441", "method_in_brief": "as §1"}, "[4]": {"test_system": "H3255", "method_in_brief": "as §1"}, "[5]": {"test_system": "HCC-15", "method_in_brief": "as §1"}, "[6]": {"test_system": "201T", "method_in_brief": "as §1"}, "[7]": {"test_system": "NCI-H322M", "method_in_brief": "as §1"}, "[8]": {"test_system": "NCI-H2023", "method_in_brief": "as §1"}, "[9]": {"test_system": "NCI-H3122", "method_in_brief": "as §1"}, "[10]": {"test_system": "NCI-H520", "method_in_brief": "as §1"}, "[11]": {"test_system": "NCI-H2170", "method_in_brief": "as §1"}, "[12]": {"test_system": "NCI-H1734", "method_in_brief": "as §1"}, "[13]": {"test_system": "NCI-H2347", "method_in_brief": "as §1"}, "[14]": {"test_system": "NCI-H647", "method_in_brief": "as §1"}, "[15]": {"test_system": "PC-14", "method_in_brief": "as §1"}, "[16]": {"test_system": "EPLC-272H", "method_in_brief": "as §1"}, "[17]": {"test_system": "LOU-NH91", "method_in_brief": "as §1"}, "[18]": {"test_system": "COR-L23", "method_in_brief": "as §1"}, "[19]": {"test_system": "NCI-H2405", "method_in_brief": "as §1"}, "[20]": {"test_system": "NCI-H1563", "method_in_brief": "as §1"}}}
{"smiles": "COc1cc2nccc(Oc3ccc(NC(=O)Nc4cc(C)on4)c(Cl)c3)c2cc1OC", "note": "[Tivozanib] + C[C@@H](Oc1cc(-c2cnn(C3CCNCC3)c2)cnc1N)c1c(Cl)ccc(F)c1Cl [Crizotinib] (partner 1 µM)", "values": [{"measurement": "relative viability", "setting": "[1]; first compound 0.005 µM", "value": 0.656}, {"measurement": "relative viability", "setting": "[1]; first compound 0.01581 µM", "value": 0.603}, {"measurement": "relative viability", "setting": "[1]; first compound 0.05 µM", "value": 0.649}, {"measurement": "relative viability", "setting": "[1]; first compound 0.5 µM", "value": 0.536}, {"measurement": "relative viability", "setting": "[2]; first compound 0.005 µM", "value": 0.919}, {"measurement": "relative viability", "setting": "[2]; first compound 0.01581 µM", "value": 1.13}, {"measurement": "relative viability", "setting": "[2]; first compound 0.05 µM", "value": 0.952}, {"measurement": "relative viability", "setting": "[2]; first compound 0.1581 µM", "value": 1.09}, {"measurement": "relative viability", "setting": "[2]; first compound 0.5 µM", "value": 0.866}, {"measurement": "relative viability", "setting": "[3]; first compound 0.005 µM", "value": 0.688}, {"measurement": "relative viability", "setting": "[3]; first compound 0.01581 µM", "value": 0.676}, {"measurement": "relative viability", "setting": "[3]; first compound 0.05 µM", "value": 0.607}, {"measurement": "relative viability", "setting": "[3]; first compound 0.1581 µM", "value": 0.72}, {"measurement": "relative viability", "setting": "[3]; first compound 0.5 µM", "value": 0.666}, {"measurement": "relative viability", "setting": "[4]; first compound 0.005 µM", "value": 0.799}, {"measurement": "relative viability", "setting": "[4]; first compound 0.01581 µM", "value": 0.906}, {"measurement": "relative viability", "setting": "[4]; first compound 0.05 µM", "value": 0.911}, {"measurement": "relative viability", "setting": "[4]; first compound 0.1581 µM", "value": 0.777}, {"measurement": "relative viability", "setting": "[4]; first compound 0.5 µM", "value": 0.8}, {"measurement": "relative viability", "setting": "[5]; first compound 0.005 µM", "value": 0.811}, {"measurement": "relative viability", "setting": "[5]; first compound 0.01581 µM", "value": 0.824}, {"measurement": "relative viability", "setting": "[5]; first compound 0.05 µM", "value": 0.796}, {"measurement": "relative viability", "setting": "[5]; first compound 0.1581 µM", "value": 0.79}, {"measurement": "relative viability", "setting": "[5]; first compound 0.5 µM", "value": 0.811}, {"measurement": "relative viability", "setting": "[6]; first compound 0.005 µM", "value": 0.981}, {"measurement": "relative viability", "setting": "[6]; first compound 0.01581 µM", "value": 1.04}, {"measurement": "relative viability", "setting": "[6]; first compound 0.05 µM", "value": 1.06}, {"measurement": "relative viability", "setting": "[6]; first compound 0.1581 µM", "value": 1}, {"measurement": "relative viability", "setting": "[6]; first compound 0.5 µM", "value": 1.04}, {"measurement": "relative viability", "setting": "[7]; first compound 0.005 µM", "value": 0.9}, {"measurement": "relative viability", "setting": "[7]; first compound 0.01581 µM", "value": 0.907}, {"measurement": "relative viability", "setting": "[7]; first compound 0.05 µM", "value": 1.03}, {"measurement": "relative viability", "setting": "[7]; first compound 0.1581 µM", "value": 0.845}, {"measurement": "relative viability", "setting": "[7]; first compound 0.5 µM", "value": 0.8}, {"measurement": "relative viability", "setting": "[8]; first compound 0.005 µM", "value": 0.555}, {"measurement": "relative viability", "setting": "[8]; first compound 0.01581 µM", "value": 0.717}, {"measurement": "relative viability", "setting": "[8]; first compound 0.05 µM", "value": 0.657}, {"measurement": "relative viability", "setting": "[8]; first compound 0.1581 µM", "value": 0.645}, {"measurement": "relative viability", "setting": "[8]; first compound 0.5 µM", "value": 0.546}, {"measurement": "relative viability", "setting": "[9]; first compound 0.005 µM", "value": 0.236}, {"measurement": "relative viability", "setting": "[9]; first compound 0.01581 µM", "value": 0.266}, {"measurement": "relative viability", "setting": "[9]; first compound 0.05 µM", "value": 0.266}, {"measurement": "relative viability", "setting": "[9]; first compound 0.1581 µM", "value": 0.29}, {"measurement": "relative viability", "setting": "[9]; first compound 0.5 µM", "value": 0.32}, {"measurement": "relative viability", "setting": "[10]; first compound 0.005 µM", "value": 0.822}, {"measurement": "relative viability", "setting": "[10]; first compound 0.01581 µM", "value": 0.827}, {"measurement": "relative viability", "setting": "[10]; first compound 0.05 µM", "value": 0.895}, {"measurement": "relative viability", "setting": "[10]; first compound 0.1581 µM", "value": 0.713}, {"measurement": "relative viability", "setting": "[10]; first compound 0.5 µM", "value": 0.603}, {"measurement": "relative viability", "setting": "[11]; first compound 0.005 µM", "value": 1.11}, {"measurement": "relative viability", "setting": "[11]; first compound 0.01581 µM", "value": 1.21}, {"measurement": "relative viability", "setting": "[11]; first compound 0.05 µM", "value": 1.24}, {"measurement": "relative viability", "setting": "[11]; first compound 0.5 µM", "value": 1.17}, {"measurement": "relative viability", "setting": "[12]; first compound 0.005 µM", "value": 0.616}, {"measurement": "relative viability", "setting": "[12]; first compound 0.01581 µM", "value": 0.63}, {"measurement": "relative viability", "setting": "[12]; first compound 0.05 µM", "value": 0.682}, {"measurement": "relative viability", "setting": "[12]; first compound 0.1581 µM", "value": 0.574}, {"measurement": "relative viability", "setting": "[12]; first compound 0.5 µM", "value": 0.565}, {"measurement": "relative viability", "setting": "[13]; first compound 0.005 µM", "value": 0.578}, {"measurement": "relative viability", "setting": "[13]; first compound 0.01581 µM", "value": 0.679}, {"measurement": "relative viability", "setting": "[13]; first compound 0.05 µM", "value": 0.673}, {"measurement": "relative viability", "setting": "[13]; first compound 0.1581 µM", "value": 0.685}, {"measurement": "relative viability", "setting": "[13]; first compound 0.5 µM", "value": 0.605}, {"measurement": "relative viability", "setting": "[14]; first compound 0.005 µM", "value": 0.925}, {"measurement": "relative viability", "setting": "[14]; first compound 0.01581 µM", "value": 1.1}, {"measurement": "relative viability", "setting": "[14]; first compound 0.05 µM", "value": 1.13}, {"measurement": "relative viability", "setting": "[14]; first compound 0.1581 µM", "value": 1.05}, {"measurement": "relative viability", "setting": "[14]; first compound 0.5 µM", "value": 0.991}, {"measurement": "relative viability", "setting": "[15]; first compound 0.005 µM", "value": 0.796}, {"measurement": "relative viability", "setting": "[15]; first compound 0.01581 µM", "value": 0.879}, {"measurement": "relative viability", "setting": "[15]; first compound 0.05 µM", "value": 0.961}, {"measurement": "relative viability", "setting": "[15]; first compound 0.1581 µM", "value": 0.879}, {"measurement": "relative viability", "setting": "[15]; first compound 0.5 µM", "value": 0.885}, {"measurement": "relative viability", "setting": "[16]; first compound 0.005 µM", "value": 0.945}, {"measurement": "relative viability", "setting": "[16]; first compound 0.01581 µM", "value": 0.829}, {"measurement": "relative viability", "setting": "[16]; first compound 0.05 µM", "value": 0.937}, {"measurement": "relative viability", "setting": "[16]; first compound 0.1581 µM", "value": 0.718}, {"measurement": "relative viability", "setting": "[16]; first compound 0.5 µM", "value": 0.715}, {"measurement": "relative viability", "setting": "[17]; first compound 0.005 µM", "value": 0.723}, {"measurement": "relative viability", "setting": "[17]; first compound 0.01581 µM", "value": 0.737}, {"measurement": "relative viability", "setting": "[17]; first compound 0.05 µM", "value": 0.77}, {"measurement": "relative viability", "setting": "[17]; first compound 0.1581 µM", "value": 0.774}, {"measurement": "relative viability", "setting": "[17]; first compound 0.5 µM", "value": 0.708}, {"measurement": "relative viability", "setting": "[18]; first compound 0.005 µM", "value": 0.622}, {"measurement": "relative viability", "setting": "[18]; first compound 0.01581 µM", "value": 0.615}, {"measurement": "relative viability", "setting": "[18]; first compound 0.05 µM", "value": 0.659}, {"measurement": "relative viability", "setting": "[18]; first compound 0.1581 µM", "value": 0.643}, {"measurement": "relative viability", "setting": "[18]; first compound 0.5 µM", "value": 0.543}, {"measurement": "relative viability", "setting": "[19]; first compound 0.005 µM", "value": 0.859}, {"measurement": "relative viability", "setting": "[19]; first compound 0.01581 µM", "value": 0.846}, {"measurement": "relative viability", "setting": "[19]; first compound 0.05 µM", "value": 0.933}, {"measurement": "relative viability", "setting": "[19]; first compound 0.1581 µM", "value": 0.903}, {"measurement": "relative viability", "setting": "[19]; first compound 0.5 µM", "value": 0.803}, {"measurement": "relative viability", "setting": "[20]; first compound 0.005 µM", "value": 0.811}, {"measurement": "relative viability", "setting": "[20]; first compound 0.01581 µM", "value": 0.857}, {"measurement": "relative viability", "setting": "[20]; first compound 0.05 µM", "value": 0.81}, {"measurement": "relative viability", "setting": "[20]; first compound 0.1581 µM", "value": 0.858}, {"measurement": "relative viability", "setting": "[20]; first compound 0.5 µM", "value": 0.919}]}
